Our source for the Kd values is paper PMC7213978, “The dynamic interplay of host and viral enzymes in type III CRISPR-mediated cyclic nucleotide signalling” (eLife, 2020).

A word on the Kd: it is the constant that tells how readily two partners part at equilibrium.

The target of the assay is T1, AcrIII-1 (SIRV1 gp29) (Sulfolobus islandicus rod-shaped virus 1, UniProt Q8QL27, H47A).
T1 construct: gene 114
Nature of the assay: biochemical.

T1 sequence (Q8QL27 whole entry H47A): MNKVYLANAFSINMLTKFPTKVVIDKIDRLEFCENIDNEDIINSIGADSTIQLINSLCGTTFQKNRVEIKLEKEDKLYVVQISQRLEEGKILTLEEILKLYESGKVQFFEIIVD

On to `Nc1ncnc2c1ncn2[C@@H]1O[C@@H]2COP(=O)(O)O[C@H]3[C@@H](O)[C@H](n4cnc5c(N)ncnc54)O[C@@H]3COP(=O)(O)O[C@H]3[C@@H](O)[C@H](n4cnc5c(N)ncnc54)O[C@@H]3COP(=O)(O)O[C@H]3[C@@H](O)[C@H](n4cnc5c(N)ncnc54)O[C@@H]3COP(=O)(O)O[C@H]2[C@H]1O` [cA4, cyclic tetra-adenylate], for which the Kd was ~0.025 µM.
